# Results from PMC12141164, “Phase-1 study of vamotinib (PF-114), a 3rd generation BCR::ABL1 tyrosine kinase-inhibitor, in chronic myeloid leukaemia” (Annals of Hematology, 2025).
# “And” between values parts separate entries of the source, which are not always exact repeats. Equal values may be shown once. Marks after values point to notes of the source that are not given here.
# Test system: BCR::ABL1 positive CML
# Assay: Phase-1 study: haematological, cytogenetic and molecular response
# Type: in vivo, human
# Conditions: for Best response achieved on PF-114: individual patients
# Method: Haematological response evaluations were done on the first day of each cycle of therapy; molecular response on the first day of cycles 1, 2, 4, 7, 10, 13 and then every three months; cytogenetic response – at screening and on the first days of cycles 4, 7, 13 and every three months thereafter, provided that there was no major molecular response.
# Cytogenetic response was assessed by differential staining of chromosomes and if uninformative, by fluorescent in situ hybridization (FISH). Mutations in BCR::ABL1 were assessed by Sanger and next generation sequencing (NGS). Sanger sequencing was done at each center; NGS analyses were done in the laboratory of Prof. Susan Branford, University of Adelaide. Discordances were resolved as described in Table S2. Molecular response was assessed using the ratio of BCR::ABL1 to ABL1 measured according to the IS [9].
# [1] = Subjects after ponatinib (N = 5)
compound,measurement,setting,value
Cc1ccc(C(=O)Nc2ccc(CN3CCN(C)CC3)c(C(F)(F)F)c2)cc1C#Cc1nnc2ccccn12 [vamotinib],Subjects with loss of MCyR,Cohort 5 500 mg N=3,0 no. (%)
same,Subjects with loss of MMR,Cohort 5 500 mg N=3,0 no. (%)
same,CCyR achieved at treatment,Cohort 6 600 mg N=6,0 no. (%)
same,CCyR by 6 months,Cohort 6 600 mg N=6,0 no. (%)
same,CCyR by 12 months,Cohort 6 600 mg N=6,0 no. (%)
same,CHR achieved at treatment,Cohort 6 600 mg N=6,2 (33) no. (%)
same,CHR by the 3 months,Cohort 6 600 mg N=6,2 (33) no. (%)
same,CHR by the 6th months,Cohort 6 600 mg N=6,2 (33) no. (%)
same,CHR by the 12th months,Cohort 6 600 mg N=6,2 (33) no. (%)
same,MCyR achieved at treatment,Cohort 6 600 mg N=6,0 no. (%)
same,MCyR by 6 months,Cohort 6 600 mg N=6,0 no. (%)
same,MCyR by 12 months,Cohort 6 600 mg N=6,0 no. (%)
same,MMR achieved at treatment,Cohort 6 600 mg N=6,0 no. (%)
same,MMR by 6 months,Cohort 6 600 mg N=6,0 no. (%)
same,MMR by 12 months,Cohort 6 600 mg N=6,0 no. (%)
same,MMR by 24 months,Cohort 6 600 mg N=6,0 no. (%)
same,Subjects with loss of CCyR,Cohort 6 600 mg N=6,0 no. (%)
same,Subjects with loss of CHR,Cohort 6 600 mg N=6,0 no. (%)
same,Subjects with loss of MCyR,Cohort 6 600 mg N=6,0 no. (%)
same,Subjects with loss of MMR,Cohort 6 600 mg N=6,0 no. (%)
same,CCyR achieved at treatment,Cohort 7 750 mg N=4,0 no. (%)
same,CCyR by 6 months,Cohort 7 750 mg N=4,0 no. (%)
same,CCyR by 12 months,Cohort 7 750 mg N=4,0 no. (%)
same,CHR achieved at treatment,Cohort 7 750 mg N=4,1 (25) no. (%)
same,CHR by the 3 months,Cohort 7 750 mg N=4,1 (25) no. (%)
same,CHR by the 6th months,Cohort 7 750 mg N=4,1 (25) no. (%)
same,CHR by the 12th months,Cohort 7 750 mg N=4,1 (25) no. (%)
same,MCyR achieved at treatment,Cohort 7 750 mg N=4,0 no. (%)
same,MCyR by 6 months,Cohort 7 750 mg N=4,0 no. (%)
same,MCyR by 12 months,Cohort 7 750 mg N=4,0 no. (%)
same,MMR achieved at treatment,Cohort 7 750 mg N=4,0 no. (%)
same,MMR by 6 months,Cohort 7 750 mg N=4,0 no. (%)
same,MMR by 12 months,Cohort 7 750 mg N=4,0 no. (%)
same,MMR by 24 months,Cohort 7 750 mg N=4,0 no. (%)
same,Subjects with loss of CCyR,Cohort 7 750 mg N=4,0 no. (%)
same,Subjects with loss of CHR,Cohort 7 750 mg N=4,0 no. (%)
same,Subjects with loss of MCyR,Cohort 7 750 mg N=4,0 no. (%)
same,Subjects with loss of MMR,Cohort 7 750 mg N=4,0 no. (%)
same,CCyR achieved at treatment,Cohort 8 300 mg N=9,5 no. (%) and 5 (56) no. (%)
same,CCyR by 6 months,Cohort 8 300 mg N=9,3 (33) no. (%)
same,CCyR by 12 months,Cohort 8 300 mg N=9,4 (44) no. (%)
same,CHR achieved at treatment,Cohort 8 300 mg N=9,4 (100) no. (%)
same,CHR by the 3 months,Cohort 8 300 mg N=9,4 (100) no. (%)
same,CHR by the 6th months,Cohort 8 300 mg N=9,4 (100) no. (%)
same,CHR by the 12th months,Cohort 8 300 mg N=9,4 (100) no. (%)
same,MCyR achieved at treatment,Cohort 8 300 mg N=9,6 no. (%) and 6 (86) no. (%)
same,MCyR by 6 months,Cohort 8 300 mg N=9,4 (57) no. (%)
same,MMR achieved at treatment,Cohort 8 300 mg N=9,4 no. (%) and 4 (44) no. (%)
same,MMR by 6 months,Cohort 8 300 mg N=9,3 (33) no. (%)
same,MMR by 12 months,Cohort 8 300 mg N=9,3 (33) no. (%)
same,MMR by 24 months,Cohort 8 300 mg N=9,4 (44) no. (%)
same,Subjects with loss of CCyR,Cohort 8 300 mg N=9,1 (20) no. (%)
same,Subjects with loss of CHR,Cohort 8 300 mg N=9,2 (50) no. (%)
same,Subjects with loss of MCyR,Cohort 8 300 mg N=9,1 (17) no. (%)
same,Subjects with loss of MMR,Cohort 8 300 mg N=9,0 no. (%)
same,CCyR,[1],none and 0/5^*
same,MCyR,[1],none and 0/5
same,MMR,[1],0/5^*
same,MMR,Subjects with BCR::ABL1^T315I (N = 16),0/16
same,CCyR achieved at treatment,Total N=51,10 no. (%) and 10 (20) no. (%)
same,CCyR by 6 months,Total N=51,6 (12) no. (%)
same,CCyR by 12 months,Total N=51,7 (14) no. (%)
same,CHR achieved at treatment,Total N=51,14 no. (%) and 14 (47) no. (%)
same,CHR by the 3 months,Total N=51,11 (37) no. (%)
same,CHR by the 6th months,Total N=51,11 (37) no. (%)
same,CHR by the 12th months,Total N=51,14 (47) no. (%)
same,MCyR achieved at treatment,Total N=51,14 no. (%) and 14 (32) no. (%)
same,MCyR by 6 months,Total N=51,10 (23) no. (%)
same,MCyR by 12 months,Total N=51,11 (25) no. (%)
same,MMR achieved at treatment,Total N=51,7 no. (%) and 7 (14) no. (%)
same,MMR by 6 months,Total N=51,4 (8) no. (%)
same,MMR by 12 months,Total N=51,4 (8) no. (%)
same,MMR by 24 months,Total N=51,7 (14) no. (%)
same,Subjects with loss of CCyR,Total N=51,2 (20) no. (%)
same,Subjects with loss of CHR,Total N=51,8 no. (%) and 8 (57) no. (%)
same,Subjects with loss of MCyR,Total N=51,2 (14) no. (%)
same,subjects achieving deep molecular response MR4.5,dose of 300 mg,One
same,Median time to achieving a CHR,in vivo,3.8 months
same,median time to MMR,in vivo,"5,6 months"
same,median time to achievement of CCyR,in vivo,5.6 months
same,median time to achievement of MCyR,in vivo,4.5 months
same,Best response achieved on PF-114,dose cohort 50 mg,CHR
same,Best response achieved on PF-114,"dose cohort 100 mg, listed as PF-114",MCyR and MMR
same,Best response achieved on PF-114,dose cohort 125 mg,MR 4.5
same,Best response achieved on PF-114,"dose cohort 200 mg, listed as PF-114",CHR and MCyR and CCyR and MR 4
same,Best response achieved on PF-114,"dose cohort 300 mg, listed as PF-114",MMR and CHR and MR 4 and CCyR and MR 4.5
same,Best response achieved on PF-114,"dose cohort 400 mg, listed as PF-114",CHR and CCyR and MCyR
same,Best response achieved on PF-114,dose cohort 600 mg,CHR
same,Best response achieved on PF-114,dose cohort 750 mg,CHR
same,time to CHR,"one subject, myeloid variant M0 blast crisis, i(17) and BCR::ABL1^T315I",5 weeks
same,duration of CCyR,subjects with BCR::ABL1^T315I,2.8 months
same,duration of MCyR,subjects with BCR::ABL1^T315I,2.8 months
